Columns and labels:
[1] = biological target: T1, FLT-3 kinase (Homo sapiens, UniProt P36888); test: FLT-3 kinase DELFIA assay (HTScan FLT-3 Kinase Assay Kit); assay type: biochemical; details: 20 uM ATP; for inhibition at 0.1 µM: 0.1 uM compound; for inhibition at 1 µM: 1 uM compound
T1 construct: human FLT-3 (Arg571-Ser993); GST (N); purchased Cell Signaling Technology HTScan FLT-3 Kinase Assay Kit; host or cells: baculovirus expression system
T1 sequence (P36888 571-993): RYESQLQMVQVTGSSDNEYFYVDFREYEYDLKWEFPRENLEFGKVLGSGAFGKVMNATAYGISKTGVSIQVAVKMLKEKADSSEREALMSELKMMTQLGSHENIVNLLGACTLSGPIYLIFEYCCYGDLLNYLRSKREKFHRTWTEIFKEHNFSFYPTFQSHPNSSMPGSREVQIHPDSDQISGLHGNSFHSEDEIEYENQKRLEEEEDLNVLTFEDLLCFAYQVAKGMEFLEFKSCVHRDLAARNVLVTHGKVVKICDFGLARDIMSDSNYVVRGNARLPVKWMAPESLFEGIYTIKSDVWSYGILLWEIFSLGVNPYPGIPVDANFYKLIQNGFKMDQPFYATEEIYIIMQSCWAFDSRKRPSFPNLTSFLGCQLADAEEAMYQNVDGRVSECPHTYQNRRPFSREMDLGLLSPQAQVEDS

[2] = biological target: T2, c-KIT kinase (Homo sapiens, UniProt P10721); test: c-KIT kinase DELFIA assay (HTScan c-KIT Kinase Assay Kit); assay type: biochemical; details: 20 uM ATP; for inhibition at 0.1 µM: 0.1 uM compound; for inhibition at 1 µM: 1 uM compound
T2 construct: human c-KIT (Thr544-Val976); GST (N); purchased Cell Signaling Technology HTScan c-KIT Kinase Assay Kit; host or cells: baculovirus expression system
Method: (§1) Azaazulene Compounds of this invention were treated for their efficacy in inhibiting activities of FLT-3, c-KIT and KDR kinases by biochemical DELFIA (Dissociation Enhanced Lanthanide FIA) assays according to the procedure described below. The assays were conducted by, Division of Cell Engineering, Biomedical Engineering Research Laboratories, Industrial Technology Research Institute, Bldg. 53, 195, sec. 4, Chung Hsing Rd. Chutung, Hsinchu, Taiwan 310, R.O.C.
The c-KIT assay was conducted following the protocol described in Protocol for HTScan® c-KIT Kinase Assay Kit (Cell Signaling Technology®).

[3] = biological target: T3, KDR kinase (Homo sapiens, UniProt P35968); test: KDR kinase DELFIA assay (HTScan VEGFR-2 Kinase Assay Kit); assay type: biochemical; details: 20 uM ATP; for inhibition at 0.1 µM: 0.1 uM compound, read-out: Kinases inhibitory activities against KDR kinase, 0.1 uM; for inhibition at 1 µM: 1 uM compound, read-out: Kinases inhibitory activities against KDR kinase, 1 uM
T3 construct: human VEGFR-2 (Val789-Val1356); GST (N); purchased Cell Signaling Technology HTScan VEGFR-2 Kinase Assay Kit; host or cells: baculovirus expression system
Method: as §1
The KDR assay was conducted following the protocol described in Protocol for HTScan™ VEGFR-2 Kinase Assay Kit (Cell Signaling Technology™).

[4] = test system: MV4-11 (FLT3-ITD) cell line; test: In vitro cell activity assay (MTT cell viability, 72 hours); assay type: cell-based; details: Homo sapiens, 72 hours at 37° C., 10,000 cells per well, read-out: IC50 against MV4-11
How it was run: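 Compound serial dilutions applied to MV4-11 (FLT3-ITD) cells, 10,000 per well, for 72 hours at 37° C. Viability by MTT, formazan dissolved in DMSO, absorbance at 600 nm; IC50 by nonlinear regression as concentration halving absorbance versus untreated cells.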

T3 sequence (P35968 789-1356): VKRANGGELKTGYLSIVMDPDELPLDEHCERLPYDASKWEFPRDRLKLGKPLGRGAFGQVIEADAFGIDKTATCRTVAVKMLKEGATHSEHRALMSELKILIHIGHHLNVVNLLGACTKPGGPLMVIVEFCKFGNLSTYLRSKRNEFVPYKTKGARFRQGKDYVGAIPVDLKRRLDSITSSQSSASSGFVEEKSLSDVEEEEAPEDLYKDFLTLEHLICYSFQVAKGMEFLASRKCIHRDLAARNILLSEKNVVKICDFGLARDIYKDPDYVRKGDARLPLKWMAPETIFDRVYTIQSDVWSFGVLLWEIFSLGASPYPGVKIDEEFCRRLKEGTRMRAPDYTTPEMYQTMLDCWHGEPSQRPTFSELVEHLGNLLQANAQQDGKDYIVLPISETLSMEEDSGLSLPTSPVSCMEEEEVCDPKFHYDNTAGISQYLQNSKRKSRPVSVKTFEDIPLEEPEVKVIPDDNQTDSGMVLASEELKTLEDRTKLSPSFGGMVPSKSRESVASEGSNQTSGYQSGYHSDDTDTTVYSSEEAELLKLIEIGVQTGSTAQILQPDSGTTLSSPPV
T2 sequence (P10721 544-976): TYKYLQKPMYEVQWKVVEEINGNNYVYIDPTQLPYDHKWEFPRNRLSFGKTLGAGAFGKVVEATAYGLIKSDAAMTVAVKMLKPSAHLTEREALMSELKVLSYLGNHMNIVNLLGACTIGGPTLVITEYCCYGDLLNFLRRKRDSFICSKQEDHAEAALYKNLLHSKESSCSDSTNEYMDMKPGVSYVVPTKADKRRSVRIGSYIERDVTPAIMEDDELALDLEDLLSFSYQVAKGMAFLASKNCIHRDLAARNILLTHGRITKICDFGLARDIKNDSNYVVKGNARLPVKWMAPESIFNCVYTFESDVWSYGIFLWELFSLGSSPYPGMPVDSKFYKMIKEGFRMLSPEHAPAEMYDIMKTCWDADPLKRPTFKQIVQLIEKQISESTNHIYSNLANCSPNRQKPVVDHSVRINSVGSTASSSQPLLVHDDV

| inhibition at 0.1 µM [1] [%] | inhibition at 1 µM [1] [%] | inhibition at 0.1 µM [2] [%] | inhibition at 1 µM [2] [%] | inhibition at 0.1 µM [3] [%] | inhibition at 1 µM [3] [%] | IC50 [4] [nM] | SMILES |
| --- | --- | --- | --- | --- | --- | --- | --- |
| 12.8 | 45.1 | 32.6 | 62.6 | 29.7 | 63.3 | 916 | Nc1ccc2[nH]c(-c3c4cccccc-4[nH]c3=O)nc2c1 [Compound B6] |
| 9.8 | 68.5 | 42.2 | 75.5 | 15.9 | 63.8 | ~500 | O=c1[nH]c2cccccc-2c1-c1nc2cc(O)ccc2[nH]1 [Compound B8] |

The next lines start with the compound.

| SMILES | inhibition at 0.1 µM [1] [%] | inhibition at 1 µM [1] [%] | inhibition at 0.1 µM [2] [%] | inhibition at 1 µM [2] [%] | inhibition at 0.1 µM [3] [%] | inhibition at 1 µM [3] [%] | IC50 [4] [nM] |
| --- | --- | --- | --- | --- | --- | --- | --- |
| O=c1[nH]c2cccccc-2c1-c1nc2cc([N+](=O)[O-])ccc2[nH]1 [Compound B5] | 12.8 | 27.1 | 15.2 | 56.8 | 31.7 | 45.3 | 1300 |
| O=C(O)c1ccc2[nH]c(-c3c4cccccc-4[nH]c3=O)nc2c1 [Compound B7] | – | 8.7 | 34.8 | 57.3 | 20.2 | 46.1 | > 5000 |
| O=c1[nH]c2cccccc-2c1-c1cn2ccccc2n1 [Compound B9] | 5.8 | 19.1 | 16 | 24.4 | 0.5 | 13.2 | 1000 to 5000 |
